Test results reported in patent US20040242650A1, “Extended dosing regimen” (priority 2003, published 2004).
Like-named read-outs stand apart in the source and are kept apart here. Marks after values point to notes of the source that are not given here.

Experiments:
[1] = Pharmacokinetic profiles of patients on the extended dosing regimen (plasma, LCMS/MS, day 15); format: in vivo; settings: for AUC / half-life / Cmax / concentration at 15 day / Tmax: human, plasma, po; for concentration at 15 day: read-out: Cmin
Protocol: (§1) A total of 43 patients were enrolled in the study. The tumor types were as follows: colorectal (23), sarcoma (5), mesothelioma (3), salivary gland (2), endometrial (2), unknown (2), hepatoma (1), melanoma (1), renal cell (1), lung (1), ovary (1), and granulosa cell (1). Patients were treated once a day (QD) or twice a day (BID) for 21 days with N-[2-[(4-hydroxyphenyl)amino]-3-pyridyl]-4-methoxybenzenesulfonamide followed by a 7-day period where no drug was received. Doses were escalated by 50 mg/day (25 mg BID). Three patients were initially treated at each dose level. […] If additional patients experienced dose-limiting toxicity, on occasion the dose level was expanded to nine patients to further assess tolerability. Response assessment was performed every two cycles.
In evaluating the pharmacokinetic profiles of the patients, plasma samples were collected pre-dose and over 6 hours following dosing on day 15. Plasma concentrations of N-[2-[(4-hydroxyphenyl)amino]-3-pyridyl]-4-methoxybenzenesulfonamide were determined by a validated LCMS/MS assay. Pharmacokinetic parameter estimates were obtained using noncompartmental methods, and included maximum observed concentration (Cmax), time to Cmax (Tmax), minimum observed concentration (Cmin), half-life (t1/2), and area under the plasma concentration-time profile over a dosing interval (AUCτ). To facilitate calculation of day 15 AUCs, pre-dose concentrations at the beginning and end of the dosing interval were assumed to be equal. Results are summarized below (Table 2).

[2] = Dose limiting toxicity in patients, 21-day QD or BID dosing; format: in vivo
Protocol: as §1

[3] = system: HT-29 colon subcutaneous flank xenografts; test: HT-29 flank xenograft model; format: in vivo, nude mice; settings: for Tumor Volume Day 38: mean ± SEM; for % ILS: median, time to 1 cc vs vehicle; for % T/C Day 38: treated vs vehicle
Protocol: Efficacy of N-[2-[(4-hydroxyphenyl)amino]-3-pyridyl]-4-methoxybenzenesulfonamide was tested in Calu-6 NSCL, MDA-MB-468 breast and HT-29 colon carcinoma xenografts grown in nude mice. The objectives were determination of the efficacy of N-[2-[(4-hydroxyphenyl)amino]-3-pyridyl]-4-methoxybenzenesulfonamide as a single agent and in combination with cisplatin in the Calu-6 NSCL flank xenograft model; determination the efficacy of N-[2-[(4-hydroxyphenyl)amino]-3-pyridyl]-4-methoxybenzenesulfonamide as a single agent and in combination with docetaxel in the MDA-MB 468 breast flank xenograft model; determination of the efficacy of N-[2-[(4-hydroxyphenyl)amino]-3-pyridyl]-4-methoxybenzenesulfonamide as a single agent and in combination with 5-FU in the HT-29 colon flank xenograft model; and comparison the efficacy of N-[2-[(4-hydroxyphenyl)amino]-3-pyridyl]-4-methoxybenzenesulfonamide administered on 2 different schedules (q.d. vs b.i.d.) in the Calu-6 and HT-29 xenogaft model.
Following inoculation of tumor cells, tumors were passaged three times in mice before using the fragments to generate single cell suspensions. Multiple animals were used as donors. Single cell suspensions were generated by homogenizing the minced tumor tissue in RPMI 1640 media. Cell suspensions were washed three times to remove debris and other foreign materials. Viable cells were counted by trypan blue exclusion technique using a hemocytometer. Mice were injected subcutaneously with 0.5 ml of the cell suspension containing 1×10^6 cells.
Tumor cells derived from serially passaged tumor fragments were inoculated s.c. in female nude mice on day 0. On day 10, mice bearing established tumors were size matched at ˜236 mm^3 and placed into the following groups:
1. N-[2-[(4-hydroxyphenyl)amino]-3-pyridyl]-4-methoxybenzenesulfonamide—100, and 75 mg/kg/day (p.o., q.d., 5 days on, 5 days off ×2)
2. N-[2-[(4-hydroxyphenyl)amino]-3-pyridyl]-4-methoxybenzenesulfonamide—50 and 0 mg/kg/day (p.o., q.d. ×21 or p.o., b.i.d. ×21)
Combination Therapy—100/30, 75/30, mg/kg/day (p.o., q.d., 5 days on, 5 days off ×2/ip, qd ×1), 50/10 mg/kg/day (p.o., q.d., ×21/ip, qd ×1).

[4] = 25 mg, 25 mg BID oral, day 15, plasma, N=2
[5] = 25 mg, 25 mg QD oral, day 15, plasma, N=4
[6] = 50 mg, 50 mg BID oral, day 15, plasma, N=2
[7] = 50 mg, 50 mg QD oral, day 15, plasma, N=3
[8] = 75 mg, 75 mg BID oral, day 15, plasma, N=3
[9] = 100 mg, 100 mg BID oral, day 15, plasma, N=3
[10] = 100 mg, 100 mg QD oral, day 15, plasma, N=3
[11] = 200 mg, 200 mg QD oral, day 15, plasma, N=2
[12] = 75 mg/kg/day p.o., q.d., (5 days on, 5 days off) x2
[13] = 100 mg/kg/day p.o., q.d., (5 days on, 5 days off) x2

COc1ccc(S(=O)(=O)Nc2cccnc2Nc2ccc(O)cc2)cc1 [N-[2-[(4-hydroxyphenyl)amino]-3-pyridyl]-4-methoxybenzenesulfonamide]
Cmin ([1]; 150 mg QD oral, day 15, plasma, N=3): 700 ± 400 ng/mL | accumulation of plasma concentrations ([1]; QD or BID dosing): accumulated minimally | variation of Tmax and t1/2 with dose ([1]; across doses studied): did not appear to vary with dose | dose proportionality of plasma concentrations ([1]; across the range of doses studied): dose-proportional (linear) pharmacokinetics | Cmin concentrations, BID vs QD regimens ([1]; for a given daily dose): tended to be greater for BID regimens compared to QD regimens | AUC ([1]; 25 mg, 25 mg BID oral, day 15, N=2, AUC0-12): 9100 ± 400 ng·h/mL | half-life ([1]; 25 mg, 25 mg BID oral, day 15, N=2, harmonic mean and pseudo standard deviation, read-out: t1/2 (converted)): 3.8 ± 1.7 h | Cmax [1, 4]: 2000 ± 600 ng/mL | concentration at 15 day [1, 4]: 300 ng/mL | Tmax ([1]; 25 mg, 25 mg BID oral, day 15, plasma, N=2, read-out: Tmax): 2.3 ± 2.5 h | AUC ([1]; 25 mg, 25 mg QD oral, day 15, N=4, AUC0-24): 9000 ± 2900 ng·h/mL | half-life ([1]; 25 mg, 25 mg QD oral, day 15, N=4, harmonic mean and pseudo standard deviation, read-out: t1/2 (converted)): 6.3 ± 0.2 h | Cmax [1, 5]: 1700 ± 300 ng/mL | concentration at 15 day [1, 5]: 100 ng/mL | Tmax ([1]; 25 mg, 25 mg QD oral, day 15, plasma, N=4, read-out: Tmax): 1.3 ± 0.5 h | AUC ([1]; 50 mg, 50 mg BID oral, day 15, N=2, AUC0-12): 16400 ± 3200 ng·h/mL | half-life ([1]; 50 mg, 50 mg BID oral, day 15, N=2, harmonic mean and pseudo standard deviation, read-out: t1/2 (converted)): 4 ± 0.6 h | Cmax [1, 6]: 5000 ± 900 ng/mL | concentration at 15 day [1, 6]: 400 ± 200 ng/mL | Tmax ([1]; 50 mg, 50 mg BID oral, day 15, plasma, N=2, read-out: Tmax): 0.5 h | AUC ([1]; 50 mg, 50 mg QD oral, day 15, N=3, AUC0-24): 20400 ± 5000 ng·h/mL | half-life ([1]; 50 mg, 50 mg QD oral, day 15, N=3, harmonic mean and pseudo standard deviation, read-out: t1/2 (converted)): 4.6 ± 2.4 h | Cmax [1, 7]: 3500 ± 200 ng/mL | concentration at 15 day [1, 7]: 100 ± 100 ng/mL | Tmax ([1]; 50 mg, 50 mg QD oral, day 15, plasma, N=3, read-out: Tmax): 1.7 ± 0.6 h | AUC ([1]; 75 mg, 75 mg BID oral, day 15, N=3, AUC0-12): 17000 ± 3600 ng·h/mL | half-life ([1]; 75 mg, 75 mg BID oral, day 15, N=3, harmonic mean and pseudo standard deviation, read-out: t1/2 (converted)): 5.3 ± 0.9 h | Cmax [1, 8]: 3700 ± 1200 ng/mL | concentration at 15 day [1, 8]: 600 ng/mL | Tmax ([1]; 75 mg, 75 mg BID oral, day 15, plasma, N=3, read-out: Tmax): 1.5 ± 0.9 h | AUC ([1]; 100 mg, 100 mg BID oral, day 15, N=3, AUC0-12): 24100 ± 10000 ng·h/mL | half-life ([1]; 100 mg, 100 mg BID oral, day 15, N=3, harmonic mean and pseudo standard deviation, read-out: t1/2 (converted)): 6.1 ± 2.3 h | Cmax [1, 9]: 3500 ± 1300 ng/mL | concentration at 15 day [1, 9]: 900 ± 400 ng/mL | Tmax ([1]; 100 mg, 100 mg BID oral, day 15, plasma, N=3, read-out: Tmax): 2.3 ± 1.5 h | AUC ([1]; 100 mg, 100 mg QD oral, day 15, N=3, AUC0-24): 39500 ± 7900 ng·h/mL | half-life ([1]; 100 mg, 100 mg QD oral, day 15, N=3, harmonic mean and pseudo standard deviation, read-out: t1/2 (converted)): 5.8 ± 1.3 h | Cmax [1, 10]: 8400 ± 900 ng/mL | concentration at 15 day [1, 10]: 200 ± 100 ng/mL | Tmax ([1]; 100 mg, 100 mg QD oral, day 15, plasma, N=3, read-out: Tmax): 1.7 ± 0.6 h | AUC ([1]; 150 mg, 150 mg QD oral, day 15, N=3, AUC0-24): 55100 ± 12200 ng·h/mL | half-life ([1]; 150 mg, 150 mg QD oral, day 15, N=3, harmonic mean and pseudo standard deviation, read-out: t1/2 (converted)): 8.5 ± 1.5 h | Cmax ([1]; 150 mg, 150 mg QD oral, day 15, plasma, N=3): 8200 ± 2300 ng/mL | Tmax ([1]; 150 mg, 150 mg QD oral, day 15, plasma, N=3, read-out: Tmax): 1.2 ± 0.8 h | AUC ([1]; 200 mg, 200 mg QD oral, day 15, N=2, AUC0-24): 60200 ± 34200 ng·h/mL | half-life ([1]; 200 mg, 200 mg QD oral, day 15, N=2, harmonic mean and pseudo standard deviation, read-out: t1/2 (converted)): 7 ± 1 h | Cmax [1, 11]: 9100 ± 5900 ng/mL | concentration at 15 day [1, 11]: 500 ± 300 ng/mL | Tmax ([1]; 200 mg, 200 mg QD oral, day 15, plasma, N=2, read-out: Tmax): 2 h | Tmax ([1]; oral dosing, all regimens, read-out: overall mean Tmax): 1.5 h | half-life ([1]; oral dosing, all regimens, read-out: overall mean t1/2 (converted)): 6 h | absorption following oral dosing ([1]; oral dosing, patients): rapidly absorbed | dose limiting toxicity ([2]; patients receiving up to 150 mg of drug per day): No dose limiting toxicity | dose limiting toxicities observed ([2]; patients, QD or BID for 21 days followed by 7 days off): ileus, peripheral neuropathy, fatigue, and abdominal pain | Tumor Volume Day 38 ([3]; 50 mg/kg/day p.o., b.i.d x21): 1158 ± 62 mm^3 | % ILS ([3]; 50 mg/kg/day p.o., b.i.d x21): 36*** % | % T/C Day 38 ([3]; 50 mg/kg/day p.o., b.i.d x21): 51*** % | Tumor Volume Day 38 ([3]; 50 mg/kg/day p.o., q.d x21): 1244 ± 55 mm^3 | % ILS ([3]; 50 mg/kg/day p.o., q.d x21): 36*** % | % T/C Day 38 ([3]; 50 mg/kg/day p.o., q.d x21): 55*** % | Tumor Volume Day 38 [3, 12]: 942 ± 46 mm^3 | % ILS [3, 12]: 50*** % | % T/C Day 38 [3, 12]: 43*** % | Tumor Volume Day 38 [3, 13]: 619 ± 40 mm^3 | % ILS [3, 13]: 75*** % | % T/C Day 38 [3, 13]: 28*** % | antitumor activity as a single agent ([3]; 100 and 75 mg/kg/day, 5 days on, 5 days off for 2 cycles): significant antitumor activity | efficacy of combination compared to single agents alone (summary) ([3]; in combination with 5-FU): equal to or greater than additive efficacy | response in combination with 5-FU ([3]; in combination with 5-FU at 30 mg/kg/day, at the higher doses): additive responses | efficacy q.d. vs b.i.d. (summary) ([3]; q.d. or b.i.d. for 21 days): equal efficacy | efficacy as a single agent (summary) ([3]; single agent): dose-dependent efficacy
